Reference: PMC4317639, “In Vitro Gender-Dependent Inhibition of Porcine Cytochrome P450 Activity by Selected Flavonoids and Phenolic Acids” (BioMed Research International, 2015)

Tests used:
porcine CYP1A = experiment: Inhibition of CYP1A activity (7-ethoxyresorufin O-deethylation) in porcine hepatic microsomes; assay type: in vitro ADME, pig; details: for effect on CYP1A activity: 16 μM compound, hepatic microsomes from male and female pigs, 2 μM 7-ethoxyresorufin; for effect of a preincubation step on inhibition of CYP1A: 5 min preincubation with NADPH at 37°C, male and female pigs; for effect of a preincubation step on inhibition of CYP1A / Ki: inhibitor 16, 32, 128 μM; for Ki: 7-ethoxyresorufin 0.1-4 μM
Description: (§1) Microsomes were prepared with a calcium aggregation method using Tris-EDTA homogenization buffer. Experiments were performed using pools of microsomes consisting of microsomes from two individual pigs. The total microsomal protein concentration was analyzed the same day using a commercially available kit (Bio-Rad Laboratories Inc., Hercules, CA, USA) according to the manufacturer's instructions. Microsomes were diluted to a protein concentration of 10 mg/mL and stored at −80°C until analysis.
(§2) Specific CYP450 activities were determined by incubating microsomes (diluted in 0.5 M potassium phosphate buffer (pH 7.4)) and adding 0.5 mM NADPH together with one of the following selective substrates (specific CYP450 target given in parentheses): 2 μM 7-ethoxyresorufin (CYP1A), 200 μM coumarin (CYP2A), 10 μM 7-benzyloxy-4-trifluoromethylcoumarin (CYP3A), and 200 μM p-nitrophenol (CYP2E1). […] The corresponding metabolites were quantified by HPLC as previously described.
(§3) For quercetin, this concentration is approximately what can be found in liver of pigs fed a single dose of a quercetin enriched diet. The stock solutions of these compounds were prepared in methanol, and the final concentration of methanol was 0.1% in the incubation volumes. The same amount of methanol was added to the control incubations. Percentage inhibitions were calculated as differences between the activities in the control incubations (arbitrarily set to 100%) and in the presence of the specific compound.
(§4) For that microsomes were preincubated with the tested compound in the presence of NADPH for 5 min (CYP1A, CYP3A) or 15 min (CYP2E1) at 37°C before the addition of specific substrate. […] The incubation time and the amount of the microsomal protein were in the linear range for the rate of metabolite formation. All measurements were performed in duplicate.
(§5) Kinetic parameters (Michaelis-Menten constant K m, maximal velocity of the reaction V max, and dissociation constant for inhibitor binding K i) were estimated by fitting data to the Michaelis-Menten equation using GraphPad Prism (version 4.0 for Windows, GraphPad Software (San Diego, California, USA)). Visual inspection of the plots was used to estimate whether inhibition degree was affected by inclusion of the preincubation step.

porcine CYP2A = details: 16 μM compound; hepatic microsomes from male and female pigs; 200 μM coumarin
Description: as §1
Specific CYP450 activities were determined by incubating microsomes (diluted in 0.5 M potassium phosphate buffer (pH 7.4)) and adding 0.5 mM NADPH together with one of the following selective substrates (specific CYP450 target given in parentheses): 2 μM 7-ethoxyresorufin (CYP1A), 200 μM coumarin (CYP2A), 10 μM 7-benzyloxy-4-trifluoromethylcoumarin (CYP3A), and 200 μM p-nitrophenol (CYP2E1). For kinetic studies, concentrations of 7-ethoxyresorufin varied from 0.05 to 4 μM, concentrations of p-nitrophenol varied from 2.5 to 4000 μM, and concentrations of BFC varied from 0.1 to 150 μM. The corresponding metabolites were quantified by HPLC as previously described.
as §3

porcine CYP3A = experiment: Inhibition of CYP3A activity (7-benzyloxy-4-trifluoromethylcoumarin O-dealkylation) in porcine hepatic microsomes; assay type: in vitro ADME, pig; details: for effect on CYP3A activity: 16 μM compound, hepatic microsomes from male and female pigs, 10 μM BFC; for reversibility of CYP3A inhibition (effect of a preincubation step): 5 min preincubation with NADPH at 37°C, male and female pigs; for Ki: pig, inhibitor 16, 32, 128 μM, BFC 0.1-150 μM
Description: as §1, §2, §3, §4, §5

porcine CYP2E1 = porcine CYP2E1 (Sus scrofa, UniProt P79383); experiment: Inhibition of CYP2E1 activity (p-nitrophenol hydroxylation) in porcine hepatic microsomes; assay type: in vitro ADME, pig; details: for effect on CYP2E1 activity: 16 μM compound
porcine CYP2E1, sequence (P79383 whole entry): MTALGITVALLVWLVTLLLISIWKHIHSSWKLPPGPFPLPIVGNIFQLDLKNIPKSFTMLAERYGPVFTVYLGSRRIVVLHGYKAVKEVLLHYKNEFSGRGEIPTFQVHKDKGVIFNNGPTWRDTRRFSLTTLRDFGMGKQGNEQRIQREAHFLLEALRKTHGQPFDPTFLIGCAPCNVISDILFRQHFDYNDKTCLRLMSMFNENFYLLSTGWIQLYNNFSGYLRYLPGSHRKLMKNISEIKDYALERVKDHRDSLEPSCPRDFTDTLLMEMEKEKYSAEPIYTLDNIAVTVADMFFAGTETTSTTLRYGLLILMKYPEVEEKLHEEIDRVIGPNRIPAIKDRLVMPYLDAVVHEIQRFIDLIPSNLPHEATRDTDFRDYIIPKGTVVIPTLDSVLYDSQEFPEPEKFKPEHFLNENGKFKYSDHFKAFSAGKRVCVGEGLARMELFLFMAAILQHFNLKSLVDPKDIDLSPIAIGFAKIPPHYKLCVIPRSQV
Description: as §1, §2, §3, §4, §5

[1] = hepatic microsomes from male and female pigs, 200 μM p-nitrophenol
[2] = pig, pH 7.4, hepatic microsomes from female pigs
[3] = pig, pH 7.4, hepatic microsomes from male pigs
[4] = hepatic microsomes from female pigs

SMILES	effect on CYP1A activity (porcine CYP1A)	effect on CYP2A activity (porcine CYP2A)	effect on CYP3A activity (porcine CYP3A)	effect on CYP2E1 activity (porcine CYP2E1; [1])	further results
O=C(O)/C=C/c1ccc(O)c(O)c1 [caffeic acid]	did not alter activity	did not alter activity	did not alter activity	did not alter activity	
O=C(O)c1cc(O)c(O)c(O)c1 [gallic acid]			did not alter activity	did not alter activity	
COc1cc(-c2oc3cc(O)cc(O)c3c(=O)c2O)ccc1O [isorhamnetin]		did not affect	decreased	did not affect	effect of a preincubation step on inhibition of CYP1A (porcine CYP1A): did not affect; Ki (porcine CYP1A; [2]): 10.8 ± 2.8 µM; Ki (porcine CYP1A; [3]): 99.9 ± 77.6 µM; reversibility of CYP3A inhibition (effect of a preincubation step) (porcine CYP3A): reversible inhibition; Ki (porcine CYP3A; pH 7.4, hepatic microsomes from female pigs): 93.7 ± 61.3 µM; Ki (porcine CYP3A; pH 7.4, hepatic microsomes from male pigs): 71.2 ± 20.2 µM
O=c1c(O)c(-c2cc(O)c(O)c(O)c2)oc2cc(O)cc(O)c12 [myricetin]		did not affect	decreased	did not affect	effect of a preincubation step on inhibition of CYP1A (porcine CYP1A): did not affect; Ki (porcine CYP1A; [2]): 4.4 ± 3.4 µM; Ki (porcine CYP1A; [3]): 2.5 ± 0.9 µM; reversibility of CYP3A inhibition (effect of a preincubation step) (porcine CYP3A): reversible inhibition; Ki (porcine CYP3A; liver microsomes, pH 7.4, probe 7-benzyloxy-4-trifluoromethylcoumarin (BFC), hepatic microsomes from male pigs): 113 ± 20.8 µM
O=C(O)/C=C/c1ccc(O)cc1 [p-coumaric acid]	did not alter activity	did not alter activity	did not alter activity	did not alter activity	
O=c1c(O)c(-c2ccc(O)c(O)c2)oc2cc(O)cc(O)c12 [quercetin]			did not affect		mode of inhibition of CYP1A (porcine CYP1A; [4]): irreversible inhibition; IC50 (porcine CYP1A; pig, liver microsomes, pH 7.4, probe 7-ethoxyresorufin (2 μM), hepatic microsomes from female pigs, with 5 min preincubation with NADPH): 2.5 µM; Ki (porcine CYP1A; pig, liver microsomes, pH 7.4, probe 7-ethoxyresorufin (0.1-4 μM; O-deethylation), hepatic microsomes from male pigs): 0.16 ± 0.03 µM; effect on CYP2E1 activity (porcine CYP2E1; [4]): No effect; reversibility of CYP2E1 inhibition (effect of a preincubation step) (porcine CYP2E1; 15 min preincubation with NADPH at 37°C, male pigs): reversible inhibition; Ki (porcine CYP2E1; hepatic microsomes from male pigs, inhibitor 16, 32, 128 μM, p-nitrophenol 0.25-4000 μM): 94.2 ± 13.5 µM
C[C@@H]1O[C@@H](OC[C@H]2O[C@@H](Oc3c(-c4ccc(O)c(O)c4)oc4cc(O)cc(O)c4c3=O)[C@H](O)[C@@H](O)[C@@H]2O)[C@H](O)[C@H](O)[C@H]1O [rutin]	did not alter activity	did not alter activity	did not alter activity	did not alter activity	
